In patent US5710164A, “Diheterocyclic styryl nitriles” (American Home Products Corporation, priority 1995, dated 1998):
Like-named read-outs stand apart in the source and are kept apart here.

Columns and labels:
[1] = cytotoxicity, modified MTT assay (% viable cells); format: cell-based, porcine; details: pig, smooth muscle cells; fresh medium without serum, 24 h at 37° C.; no drug = 100% viable
Method: To distinguish cytotoxicity from the ability of a compound to prevent proliferation, the test compounds were examined using a commercial modification of the MTT assay. Briefly, cells were grown in 24 well plates to 70-80% confluency. The cells were serum deprived for 24-48 hours prior to initiation of the experimental protocol. To insure that the MTT assay monitored toxicity rather than proliferation, the cells were incubated with […] test compound in fresh medium without serum for 24 hours at 37° C. in a humidified CO2 incubator. Upon completion of the compound treatment, MTT indicator dye was added for 4 hours at 37° C. Cells were then solubilized and aliquots from each well were transferred to a 96-well plate for analysis. Absorbance at 570 nm wavelength with a reference wavelength of 630 nm was recorded using an ELISA plate reader. Results are reported as percent viable using no drug (100% viable) and pre-solubilization (0% viable) standards.

[2] = system: porcine aortic smooth muscle cells; experiment: inhibition of smooth muscle cell proliferation (3H thymidine, serum or PDGF stimulated); format: cell-based; details: Sus scrofa, 24-36 h at 37° C.
Method: The ability of the compounds of the present invention to inhibit smooth muscle cell proliferation was established using isolated porcine aortic smooth muscle cells in a modification of the procedure of Castellot et al. J. Biol. Chem 257(19) 11256 (1982), as follows:
Fresh porcine aortas, scrupulously cleansed of fatty tissue, are rinsed in sterile phosphate-buffered saline with 2% antibiotic-antimycotic (100×) liquid (10,000 units of penicillin (base), 10,000 μg of streptomycin (base), and 25 μg of amphotericin B/mL utilizing penicillin G (sodium salt), streptomycin sulfate, and amphotericin B as Fungizone® in 0.85% saline, available from Gibco Laboratories, Grand Island Biological Co., Grand Island, N.Y.). The tissue is then digested in 10-15 mL of an enzyme solution containing collagenase type I, 165 U/mL; elastase type III, 15 U/mL; BSA, 2 mg/mL; and soybean trypsin inhibitor, 0.375 mg/mL, followed by incubation at 37° C. under 5% CO2 atmosphere for 10 to 15 minutes. After this treatment, the outer surface adventitia is removed by peeling with a forceps. The aorta is then longitudinally cut and laid open and the endothelial layer is removed by scraping.
The medial layer of cells is rinsed in the enzyme solution, and placed in a new 100 mm dish with 10 mL of enzyme solution. The medial layer of cells is minced using a fine pair of scissors and digested for 2-3 hours at 37° C. in 30 mL of fresh enzyme solution. After digestion, the medial tissue is homogenized using a sterile Pasteur pipette with a fire polished tip or an Eppendorf pipetter with a 200-1000 μL sterile pipette tip. The suspension is then centrifuged for 10 minutes at 8000 rpm and the pellet is suspended in 4-6 mL of fresh enzyme solution and plated onto 4-6 100 mm flasks with vented caps. The cells are then allowed to grow to confluence and split using 0.25% trypsin. The cells are evaluated for purity and overall quality using antibody to SMC actin.
The cells are assayed in early passage (generally passage 3-7) at sub-confluent conditions. Cultures are grown in 16 mm (24 well) multi-well culture dishes in media 199 supplemented with 10% fetal bovine serum and 2% antibiotic/antimycotic. At subconfluence, the cells are placed in a defined serum free, lymphocyte medium (AIM-V; Gibco) for 24-48 hours prior to initiating the experimental protocol.
The standard test procedure is initiated by addition of the test compound, ^3 H thymidine and serum or a specific growth factor to the serum deprived synchronized cells. Growth factor and serum stimulations are optimized for each cell type. The test compounds are added to each well at 50 fold dilution (20 μL/well) and the plates are incubated for 24-36 hours at 37° C. in 5% CO2 atmosphere. Test compounds are dissolved in 50% ethanol and assayed at 1, 10, and 100 μM. As a control, RG 50872 (Bilder, G. A.; et al., Am. J. Cell Physiol., 1991; 260: C721) is routinely assayed under the conditions of each cell preparation at a concentration of 5 μM.
At the completion of the experiment, the plates are placed on ice, washed three times with ice cold PBS and incubated in ice cold 10% trichloroacetic acid (TCA) for 30 minutes to remove acid soluble proteins. Each solution is transferred to a scintillation vial containing 0.4N HCl (500 μL/vial to neutralize NaOH) and each well is rinsed two times with water (500 μL) for a total volume of 2 mL/vial.
Data is quantitated by subjecting the vials to a scintillation counter, in triplicate, for both control and experimental samples. Control (100%) data is obtained from maximally stimulated cells, as the result of growth factor or serum stimulation. Experimental data is obtained from cells maximally stimulated with growth factor or serum and treated with a test compound. (The platelet-derived growth factor used in the assay was human recombinant PDGF-AB purchased from Upstate Biotechnology Inc., Lake Placid, N.Y.). Data is expressed as a percent of control from which IC50 s are determined.

[3] = serum-stimulated, read-out: Porcine Smooth Muscle Cell Antiproliferation IC50 or % Inhibition at x Concentration, Serum
[4] = human recombinant PDGF-AB stimulated, read-out: Porcine Smooth Muscle Cell Antiproliferation IC50 or % Inhibition at x Concentration, PDGF

Structure (SMILES) | viability at 24 h [1] | IC50 [2, 3] | IC50 [2, 4]
N#CC(=Cc1ccccn1)c1cccnc1 [Example 4, 2-Pyridin-3-yl-3-pyridin-2-yl-acrylonitrile] | 92% | 48300 nM | –
N#C/C(=C\c1ccc2c(c1)OCCO2)c1c[nH]c2ncccc12 [Example 7, (Z)-3-(2,3-Dihydro-benzo[1,4]dioxin-6-yl)-2-(1H-pyrrolo-[2,3-b]pyridin-3-yl)-acrylonitrile] | 100% | 1230 nM | 14800 nM
N#CC(=Cc1c[nH]c2ncccc12)c1cccnc1 [Example 6, 2-(Pyridin-3-yl)-3-(1H-pyrrolo[2,3-b]pyridin-3-yl)-acrylonitrile] | 100% | 1180 nM | 900 nM
N#CC(=Cc1cccnc1)c1cccnc1 [Example 5, 2,3-Di-pyridin-3-yl-acrylonitrile] | – | 96600 nM | –
N#CC(=Cc1ccnc2ccccc12)c1cccnc1 [Example 2, 2-Pyridin-3-yl-3-quinolin-4-yl-acrylonitrile] | – | 81000 nM | –
CCn1c2ccccc2c2cc(/C=C(\C#N)c3cccnc3)ccc21 [Example 8, (Z)-3-(9-Ethyl-9H-carbazol-3-yl)-2-(pyridin-3-yl) acrylonitrile] | 100% | 355 nM | 336 nM
N#CC(=Cc1ccc[nH]1)c1cccnc1 [Example 9, 2-(Pyridin-3-yl)-3-(1H-pyrrol-2-yl)-acrylonitrile] | 84% | 92000 nM | –
N#C/C(=C\c1ccncc1)c1cccnc1 [Example 1, Z-2-(Pyridin-3yl)-3-(pyridin-4-yl)-acrylonitrile] | 100% | 1160 nM | 346 nM
N#CC(=Cc1ccc2c(c1)OCCO2)c1cccnc1 [Example 3, 3-(2,3-Dihydro-benzo[1,4]dioxin-6-yl)-2-pyridin-3-yl-acrylonitrile] | 86% | 3800 to 11500 nM | 10500 nM
